Measurements reported in PMC11369081, “Molecular mechanism of prolactin-releasing peptide recognition and signaling via its G protein-coupled receptor” (Cell Discovery, 2024).
Peptide text beside a SMILES is read from it.

Legend:
Format in all cases: cell-based
[1] = biological target: T1, PrRPR W127A (Homo sapiens, UniProt P49683, W127A); experiment: BRET2 Gq dissociation, W127A; settings: W127A (23.50), Gq-coupling, AD293 cells; mean ± S.E.M., n = 3; P <0.0001 vs WT; read-out: BRET2 pEC50 (converted)
T1 construct: expressed in transfected cells; host or cells: AD293 cells
Procedure: (§1) AD293 cells (Agilent) were propagated in Dulbecco’s Modified Eagle Medium (DMEM, Thermo Fisher Scientific), enriched with 10% fetal bovine serum (FBS, Thermo Fisher Scientific), and maintained at 37 °C in a 5% CO2 environment. Cells were then seeded in 6-well dishes at a density of 130,000–150,000 cells per mL and allowed to incubate overnight. On the next day, cells were transfected with plasmids at a 1:1:1:1 ratio for receptor:Gα-RLuc8:Gβ:Gγ-GFP2[52]. PEI MAX 40 K (BIOHUB) was utilized to form complex with the plasmids at a ratio of 3 µL PEI per µg of plasmids, in OptiMEM (Gibco-Thermo Fisher Scientific) at a concentration of 10 ng plasmids per µL OptiMEM. After 24 h of incubation, the culture was harvested by centrifugation with PBS. The cell suspension was then allocated into a white 384-well plate at a volume of 30 µL per well, followed by the addition of 10 µL of freshly prepared 50 µM coelenterazine 400a (Yeasen). […] Plates were subsequently read in a BioTek Synergy H1 microplate reader (BioTek) equipped with 395 nm (RLuc8-coelenterazine 400a) and 510 nm (GFP2) emission filters. BRET2 ratios were calculated as the ratio of the GFP2 emission to RLuc8 emission. […]
(§2) Supplementary Fig. S4 | Effects of mutations in the ligand-binding pocket and G protein intereface of Gq coupled PrRPR by BRET2 assay. […] BRET2 assay signals were measured after stimulation with PrRP20. […]

[2] = biological target: T2, PrRPR WT (Homo sapiens, UniProt P49683); experiment: BRET2 Gi dissociation, WT; settings: Gi-coupling, AD293 cells
T2 construct: expressed in transfected cells; host or cells: AD293 cells
T2 sequence (P49683 1-370): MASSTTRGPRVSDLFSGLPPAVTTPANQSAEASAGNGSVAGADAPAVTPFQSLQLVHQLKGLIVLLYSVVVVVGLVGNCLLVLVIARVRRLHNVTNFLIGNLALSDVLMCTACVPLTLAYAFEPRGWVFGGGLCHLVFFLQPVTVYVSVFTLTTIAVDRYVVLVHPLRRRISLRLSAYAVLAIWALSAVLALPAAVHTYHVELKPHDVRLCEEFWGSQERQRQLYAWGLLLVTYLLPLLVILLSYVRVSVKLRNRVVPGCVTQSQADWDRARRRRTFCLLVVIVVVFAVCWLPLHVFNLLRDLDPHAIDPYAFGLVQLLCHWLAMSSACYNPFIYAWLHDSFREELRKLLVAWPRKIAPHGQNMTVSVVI
Procedure: (§3) AD293 cells (Agilent) were propagated in Dulbecco’s Modified Eagle Medium (DMEM, Thermo Fisher Scientific), enriched with 10% fetal bovine serum (FBS, Thermo Fisher Scientific), and maintained at 37 °C in a 5% CO2 environment. Cells were then seeded in 6-well dishes at a density of 130,000–150,000 cells per mL and allowed to incubate overnight. On the next day, cells were transfected with plasmids at a 1:1:1:1 ratio for receptor:Gα-RLuc8:Gβ:Gγ-GFP2[52]. PEI MAX 40 K (BIOHUB) was utilized to form complex with the plasmids at a ratio of 3 µL PEI per µg of plasmids, in OptiMEM (Gibco-Thermo Fisher Scientific) at a concentration of 10 ng plasmids per µL OptiMEM. After 24 h of incubation, the culture was harvested by centrifugation with PBS. The cell suspension was then allocated into a white 384-well plate at a volume of 30 µL per well, followed by the addition of 10 µL of freshly prepared 50 µM coelenterazine 400a (Yeasen). Following a 15-min equilibration period, cells were treated with 10 µL of ligand for an additional 5 min. Plates were subsequently read in a BioTek Synergy H1 microplate reader (BioTek) equipped with 395 nm (RLuc8-coelenterazine 400a) and 510 nm (GFP2) emission filters. BRET2 ratios were calculated as the ratio of the GFP2 emission to RLuc8 emission. Data were normalized to the baseline response of the ligand. […]

[3] = biological target: T3, PrRPR H295A (Homo sapiens, UniProt P49683, H295A); experiment: BRET2 Gq dissociation, H295A; settings: H295A (6.52), Gq-coupling, AD293 cells; mean ± S.E.M., n = 3; P <0.0001 vs WT; read-out: BRET2 pEC50 (converted)
T3 construct: Flag; expressed in transfected cells; host or cells: AD293 cells
Procedure: as §1, §2

[4] = biological target: T4, PrRPR Q317A (Homo sapiens, UniProt P49683, Q317A); experiment: BRET2 Gi dissociation, Q317A; settings: Q317A (7.35), Gi-coupling, AD293 cells; mean ± S.E.M., n = 3; P <0.0001 vs WT; read-out: BRET2 pEC50 (converted)
T4 construct: Flag; expressed in transfected cells; host or cells: AD293 cells
Procedure: as §3

[5] = biological target: T5, PrRPR T233A (Homo sapiens, UniProt P49683, T233A); experiment: BRET2 Gi dissociation, T233A; settings: T233A (5.46), Gi-coupling, AD293 cells; mean ± S.E.M., n = 3; P <0.0001 vs WT; read-out: BRET2 pEC50 (converted)
T5 construct: Flag; expressed in transfected cells; host or cells: AD293 cells
Procedure: as §3

[6] = biological target: T2, PrRPR WT; experiment: BRET2 Gq dissociation, WT; settings: WT (reference for normalisation), Gq-coupling, AD293 cells; n = 3
Procedure: as §1, §2

[7] = biological target: T6, PrRPR F313A (Homo sapiens, UniProt P49683, F313A); experiment: BRET2 Gi dissociation, F313A; settings: F313A (7.31), Gi-coupling, AD293 cells; mean ± S.E.M., n = 3; P <0.0001 vs WT; read-out: BRET2 pEC50 (converted)
T6 construct: Flag; expressed in transfected cells; host or cells: AD293 cells
Procedure: as §3

[8] = biological target: T6, PrRPR F313A; experiment: BRET2 Gq dissociation, F313A; settings: F313A (7.31), Gq-coupling, AD293 cells; mean ± S.E.M., n = 3; P 0.0012 vs WT; read-out: BRET2 pEC50 (converted)
Procedure: as §1, §2

[9] = biological target: T7, PrRPR E213A (Homo sapiens, UniProt P49683, E213A); experiment: BRET2 Gq dissociation, E213A; settings: E213A (45.52), Gq-coupling, AD293 cells; mean ± S.E.M., n = 3; P <0.0001 vs WT; read-out: BRET2 pEC50 (converted)
T7 construct: expressed in transfected cells; host or cells: AD293 cells
Procedure: as §1, §2

[10] = biological target: T1, PrRPR W127A; experiment: BRET2 Gi dissociation, W127A; settings: W127A (23.50), Gi-coupling, AD293 cells; mean ± S.E.M., n = 3; P <0.0001 vs WT; read-out: BRET2 pEC50 (converted)
Procedure: as §3

[11] = biological target: T8, PrRPR N298A (Homo sapiens, UniProt P49683, N298A); experiment: BRET2 Gq dissociation, N298A; settings: N298A (6.55), Gq-coupling, AD293 cells; mean ± S.E.M., n = 3; P 0.0042 vs WT; read-out: BRET2 pEC50 (converted)
T8 construct: Flag; expressed in transfected cells; host or cells: AD293 cells
Procedure: as §1, §2

T1 sequence (P49683 whole entry W127A): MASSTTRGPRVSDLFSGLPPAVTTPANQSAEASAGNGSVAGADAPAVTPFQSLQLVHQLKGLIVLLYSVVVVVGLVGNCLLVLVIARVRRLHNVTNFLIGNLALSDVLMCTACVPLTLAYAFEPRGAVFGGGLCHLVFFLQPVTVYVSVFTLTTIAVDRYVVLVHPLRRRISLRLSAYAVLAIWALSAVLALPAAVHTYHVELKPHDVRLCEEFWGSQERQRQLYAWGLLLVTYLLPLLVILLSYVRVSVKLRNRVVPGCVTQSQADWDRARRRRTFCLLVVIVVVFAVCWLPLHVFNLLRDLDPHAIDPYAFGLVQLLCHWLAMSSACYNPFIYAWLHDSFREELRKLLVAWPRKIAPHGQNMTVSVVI
T6 sequence (P49683 whole entry F313A): as the sequence (P49683 whole entry W127A) above, with A127W, F313A counted along it
T5 sequence (P49683 whole entry T233A): as the sequence (P49683 whole entry W127A) above, with A127W, T233A counted along it
T7 sequence (P49683 whole entry E213A): as the sequence (P49683 whole entry W127A) above, with A127W, E213A counted along it
T3 sequence (P49683 whole entry H295A): as the sequence (P49683 whole entry W127A) above, with A127W, H295A counted along it
T8 sequence (P49683 whole entry N298A): as the sequence (P49683 whole entry W127A) above, with A127W, N298A counted along it
T4 sequence (P49683 whole entry Q317A): as the sequence (P49683 whole entry W127A) above, with A127W, Q317A counted along it

EC50 [1]: 240 nM | BRET2 span ([2]; WT (reference for normalisation), n = 3): 100.00 %WT | EC50 ([2]; WT, 5 min ligand, mean ± S.E.M., n = 3 (triplicates), read-out: BRET2 pEC50 (converted)): 1.86 nM | EC50 [3]: 4.79 nM | EC50 [4]: 4170 nM | EC50 [5]: 18.6 nM | BRET2 span [6]: 100.00 %WT | EC50 [7]: 14.8 nM | EC50 [8]: 3.39 nM | EC50 [9]: 282 nM | EC50 [10]: 490 nM | EC50 [11]: 2.95 nM
Compound: CC[C@H](C)[C@H](NC(=O)CNC(=O)[C@H](CCCNC(=N)N)NC(=O)[C@H](CO)NC(=O)[C@H](C)NC(=O)[C@H](Cc1ccc(O)cc1)NC(=O)[C@H](Cc1c[nH]c2ccccc12)NC(=O)[C@H](C)NC(=O)[C@@H]1CCCN1C(=O)[C@H](CC(N)=O)NC(=O)[C@@H](NC(=O)[C@H](CC(=O)O)NC(=O)[C@@H]1CCCN1C(=O)[C@@H](N)[C@@H](C)O)[C@@H](C)CC)C(=O)N[C@@H](CCCNC(=N)N)C(=O)N1CCC[C@H]1C(=O)N[C@H](C(=O)NCC(=O)N[C@@H](CCCNC(=N)N)C(=O)N[C@@H](Cc1ccccc1)C(N)=O)C(C)C [PrRP20] (H-TPDINPAWYASRGIRPVGRF-NH2)
